Patent US9950989B2, “Cyclic hydrocarbon compound” (TOA EIYO LTD., priority 2014, dated 2018)
pIC50: −log10 of the molar value. Structures can show the parent of a compound that is named as a salt.

Columns and labels:
[1] = tested on: Male SD rats; test: Atrial effective refractory period (AERP) prolonging effect, atrium electrostimulation model; format: in vivo, rat; settings: anesthetized male SD rats, drug 10 mg/kg/10 min, basic cycle 120 ms, three examples per group
[2] = biochemical; parameters: species or system Influenza A Virus H1N1
[3] = tested on: atrial fibrillation model; settings: described in Patent Document 1 (JP 2012-236814 A); cited from earlier work

Compound | ΔAERP prolongation [1] [ms] | pIC50 [2] | atrial fibrillation suppression effect [3]
CCC(CC)O[C@@H]1C=C(C(=O)c2cccs2)C[C@H](N)[C@H]1NC(C)=O [Example 1, N-[(1R,2R,6S)-6-amino-2-(1-ethylpropoxy)-4-(thiophene-2-carbonyl)-3-cyclohexen-1-yl]acetamide] | 40.0 | 4.14 | –
CCC(CC)O[C@@H]1C=C(C(=O)c2ccc(C)o2)C[C@H](N)[C@H]1NC(C)=O [Example 3, N-[(1R,2R,6S)-6-amino-2-(1-ethylpropoxy)-4-(5-methylfuran-2-carbonyl)-3-cyclohexen-1-yl]acetamide] | 14.5 | – | –
CCC(CC)O[C@@H]1C=C(C(=O)c2ccc(C)s2)C[C@H](N)[C@H]1NC(C)=O [Example 4, N-[(1R,2R,6S)-6-amino-2-(1-ethylpropoxy)-4-(5-methylthiophene-2-carbonyl)-3-cyclohexen-1-yl]acetamide] | – | 4.18 | –
CCC(CC)O[C@@H]1C=C(C(=O)c2ccc(F)cc2)C[C@H](N)[C@H]1NC(C)=O [Example 5, N-[(1R,2R,6S)-6-amino-2-(1-ethylpropoxy)-4-(4-fluorobenzoyl)-3-cyclohexen-1-yl]acetamide] | 22.0 | – | –
CCC(CC)O[C@@H]1C=C(C(=O)c2ccccc2)C[C@H](N)[C@H]1NC(C)=O.Cl [Example 6, N-[(1R,2R,6S)-6-amino-4-benzoyl-2-(1-ethylpropoxy)-3-cyclohexen-1-yl]acetamide hydrochloride] | 35.7 | 4.07 | –
CCC(CC)O[C@@H]1C=C(C(=O)Cc2ccccc2)C[C@H](N)[C@H]1NC(C)=O [Example 7, N-[(1R,2R,6S)-6-amino-2-(1-ethylpropoxy)-4-phenylacetyl-3-cyclohexen-1-yl]acetamide] | 22.0 | – | –
CCC(CC)O[C@@H]1C=C(C(=O)C(C)(C)C)C[C@H](N)[C@H]1NC(C)=O [Example 10, N-[(1R,2R,6S)-6-amino-4-(2,2-dimethylpropionyl)-2-(1-ethylpropoxy)-3-cyclohexen-1-yl]acetamide] | 16.0 | – | –
CCCCC(=O)C1=C[C@@H](OC(CC)CC)[C@H](NC(C)=O)[C@@H](N)C1.Cl [Example 12, N-[(1R,2R,6S)-6-amino-2-(1-ethylpropoxy)-4-pentanoyl-3-cyclohexen-1-yl]acetamide hydrochloride] | 23.0 | 4.33 | –
CCC(CC)O[C@@H]1C=C(C(=O)c2ccccc2)C[C@H](N)[C@H]1NC(=O)c1ccccc1 [Example 16, N-[(1R,2R,6S)-6-amino-4-benzoyl-2-(1-ethylpropoxy)-3-cyclohexen-1-yl]benzamide] | 18.7 | – | –
CCC(CC)O[C@@H]1C=C(C(=O)c2ccccc2)C[C@H](N)[C@H]1NC(=O)C(C)(C)C [Example 17, N-[(1R,2R,6S)-6-amino-4-benzoyl-2-(1-ethylpropoxy)-3-cyclohexen-1-yl]-2,2-dimethylpropionamide] | 39.3 | < 3.52 | –
CCC(CC)O[C@@H]1C=C(C(=O)c2ccccc2)C[C@H](NC(C)=O)[C@H]1N [Example 18, N-[(1S,5R,6R)-6-amino-3-benzoyl-5-(1-ethylpropoxy)-3-cyclohexen-1-yl]acetamide] | 24.0 | < 3.52 | –
CCC(CC)O[C@@H]1C=C(C(O)c2ccccc2)C[C@H](N)[C@H]1NC(C)=O (stereo partly drawn) [Example 19, N-[(1R,2R,6S)-6-amino-2-(1-ethylpropoxy)-4-(hydroxyphenylmethyl)-3-cyclohexen-1-yl]acetamide] | – | 4.06 | –
CCC(CC)O[C@@H]1C=C(C(=O)c2cccs2)C[C@H](NC(C)=O)[C@H]1N [Example 21, N-[(1S,5R,6R)-6-amino-5-(1-ethylpropoxy)-3-(thiophene-2-carbonyl)-3-cyclohexen-1-yl]acetamide] | 29.5 | < 3.52 | –
CCOCC1=C[C@@H](OC(CC)CC)[C@H](NC(C)=O)[C@@H](N)C1 [Example 23, N-[(1R,2R,6S)-6-amino-4-ethoxymethyl-2-(1-ethylpropoxy)-3-cyclohexen-1-yl]acetamide] | 30.0 | 4.10 | –
CCC(CC)O[C@@H]1CC(C(O)c2ccccc2)C[C@H](N)[C@H]1NC(C)=O (stereo partly drawn) [Example 24, N-[(1R,2S,6R)-2-amino-6-(1-ethylpropoxy)-4-(hydroxyphenylmethyl)cyclohexyl]acetamide] | 20.5 | < 3.52 | –
CCC(CC)O[C@@H]1C=C(C(=O)c2cccs2)C[C@H](N)[C@H]1NC(=O)CC(C)C [Example 25, N-[(1R,2R,6S)-6-amino-2-(1-ethylpropoxy)-4-(thiophene-2-carbonyl)-3-cyclohexen-1-yl]-3-methylbutyramide] | 37.7 | – | –
CCN[C@@H]1[C@@H](N)CC(C(=O)c2cccs2)=C[C@H]1OC(CC)CC [Example 26, [(3R,4R,5S)-5-amino-4-ethylamino-3-(1-ethylpropoxy)cyclohexen-1-yl]thiophene-2-yl-methanone] | – | < 3.52 | –
CCNC(=O)N[C@@H]1[C@@H](N)CC(C(=O)c2cccs2)=C[C@H]1OC(CC)CC [Example 27, [(1R,2R,6S)-6-amino-2-(1-ethylpropoxy)-4-(thiophene-2-carbonyl)cyclohexen-3-yl]-3-ethylurea] | 56.0 | < 3.52 | –
CCCCCCC(=O)C1=C[C@@H](OC(CC)CC)[C@H](NC(C)=O)[C@@H](N)C1 [Example 28, N-[(1R,2R,6S)-6-amino-2-(1-ethylpropoxy)-4-heptanoyl-3-cyclohexen-1-yl]acetamide] | – | 4.61 | –
CCC(CC)O[C@@H]1C=C(C(=O)c2ccc(OC)s2)C[C@H](N)[C@H]1NC(C)=O [Example 30, N-[(1R,2R,6S)-6-amino-2-(1-ethylpropoxy)-4-(5-methoxythiophene-2-carbonyl)-3-cyclohexen-1-yl]acetamide hydrochloride] | – | 4.97 | –
CCOC(=O)C1=C[C@@H](OC(CC)CC)[C@H](NC(C)=O)[C@@H](N)C1 [Oseltamivir, reference compound] | 15.7 | – | has an atrial fibrillation suppression effect
